Measurements reported in patent publication US20040152596A1, “Coated seed and process for coating a seed” (priority 2001, published 2004).

Columns and labels:
[1] = test system: Barley
Method: (§1) A number of tests were carried out with the purpose of finding for various plant species the optimal fertilizer and the optimal fertilizer amount in terms of emergence. […] The fixing agent was used in an amount of 2% of the weight of the seeds. […] These percentages are % by weight, calculated from the seed weight.

[2] = test system: Wheat
Method: as §1

[3] = test system: Sunflower
Method: as §1

[4] = test system: Rape
Method: as §1

[5] = test system: Pea
Method: A number of tests were carried out with the purpose of finding for various plant species the optimal fertilizer and the optimal fertilizer amount in terms of emergence. […] The fixing agent was used in an amount of 2% of the weight of the seeds. […] (DCP) or urea phosphate (UP). […] These percentages are % by weight, calculated from the seed weight.
The results of the emergence tests are shown in Table 2, wherein the numeric values indicate the emergence percentage.

[6] = test system: Tomato; conditions: for Emergence percentage: fertilizer 10% of seed weight, fixing agent 2% of seed weight
Method: as §1

[7] = fertilizer 4% of seed weight, fixing agent 2% of seed weight

| SMILES | Suitability of phosphorus fertilizer as seed coating (emergence table) [1] | Suitability of phosphorus fertilizer as seed coating (emergence table) [2] | Suitability of phosphorus fertilizer as seed coating (emergence table) [3] | Suitability of phosphorus fertilizer as seed coating (emergence table) [4] | Suitability of phosphorus fertilizer as seed coating (emergence table) [5] | Combined effect in terms of plant emergence and phosphorus uptake [6] | Emergence percentage [6] | Combined effect in terms of plant emergence and phosphorus uptake [1] | Emergence percentage ([1]; fertilizer 6% of seed weight, fixing agent 2% of seed weight) | Combined effect in terms of plant emergence and phosphorus uptake [2] | Emergence percentage [2, 7] | Combined effect in terms of plant emergence and phosphorus uptake [3] | Emergence percentage ([3]; fertilizer 10% of seed weight, fixing agent 2% of seed weight) | Emergence percentage ([4]; fertilizer 8% of seed weight, fixing agent 2% of seed weight) | Emergence percentage [5, 7] |
| --- | --- | --- | --- | --- | --- | --- | --- | --- | --- | --- | --- | --- | --- | --- | --- |
| NC(N)=O.O=P(O)(O)O [UP, urea phosphate] | Not suitable | Not suitable | Not suitable | Not suitable | Not suitable | best combined effect | 82% |  |  |  |  |  |  |  |  |
| O=P([O-])(O)O.[K+] [MKP, monopotassium phosphate] |  |  |  |  |  | best combined effect | 80% | best combined effect | 93% | best combined effect | 85% | best combined effect | 87% | 85 (8%) | 95 (4%) |
